According to patent US6677307B2, “TGF-α polypeptides, functional fragments and methods of use therefor” (Kaleidos Pharma, Inc., priority 1999, dated 2004):

Columns and labels:
[1] = tested on: human CD34 positive and CD38 negative cells; assay: liquid primary culture of human bone-marrow enriched CD34 cells; type: cell-based
Description: An additional experiment investigated TGF-α activity (using TGF-α57) on human bone-marrow enriched CD34 cells. FACS-sorted human CD34 positive and CD38 negative cells were cultured in liquid primary cultures in Iscove's modified Dulbecco's media with supplements. […] Stem Cell Factor (SCF) was used as a positive control (500 ng/ml) and provided a three-fold increase in CD34 positive cells. When a combination of SCF (500 ng/ml) and TGFα (10 ng/ml) was added, a synergistic 12-fold increase in CD34 positive cells was observed.

kidney [2] = assay: glycerol acute kidney toxicity, blood BUN and creatinine; type: in vivo, CD-1 mice; conditions: 50% glycerol 10 ml/kg im; 1 μg ip; two treatments
Description: In another set of in vivo experiments, glycerol (50% (v/v) aqueous solution, Sigma) was used as the cytotoxic agent for an acute cytotoxic agent. Six CD-1 mice were weighed and injected into both hind limbs im with 10 ml/kg of 50% (v/v) glycerol, one half into each hind limb im. Three of the mice were controls and injected with 0.1 ml of 0.9% saline and the other three injected ip with 0.1 ml of 10 μg/ml stock of TGF-α (57 aa polypeptide) as a 1 μg dose. The mice were reinjected with the same does of saline or TGFα the next day and another equal dose of 50% glycerol. After two treatments, the mice were sacrificed and blood BUN and creatinine was measured and the kidneys examined. The average creatinine values were 1.75±0.613 for controls and 1.51±0.940 for treated mice. The average BUN values were […] for controls and 165.3±75.6 for treated mice.

[3] = tested on: lymphoid tissues such as spleen and the large intestine; assay: histological examination of lymphoid tissues after TGF-α57; type: in vivo; conditions: mice; 10-50 μg/kg ip 3 days or 10-50 μg/kg iv 2 days or 10 μg/kg sc 3-5 days; vs untreated mice
Description: In still another embodiment, a TGF-α polypeptide, a related polypeptide, mimetic, or functional fragment thereof having TGF-α activity are useful as vaccine adjuvants to increase mucosal humoral immunity. […] Such T cell progenitors positioned in the gastrointestinal tract represent a reservoir for CD4 helper cells needed against mucosal directed vaccine production mediated by priming with exogenous antigen. The T cell progenitor cells appear to be double null and thus naive. Accordingly, the T cell progenitor cell response to TGF-α and TGF-α mimetics provides the utility for such compounds to provide a strong mucosal immunity response and usefulness as a mucosal vaccine and as a universal stem cell adjuvant.

mouse spleen = assay: in vivo model of general hematopoiesis with Cis Platinum (spleen weights, platelets, spleen histology)
Description: Hematopoietic and myeloid cells are red blood cell precursors, platelet precursors (megakaryocytes), and immune (white) blood cell precursors of various forms of T cells, B cells and macrophages. […] It should be noted that references to TGF-α as a human 50 amino acid polypeptide further include reference to human TGFα57 as an alternative variant.
The experiment procedure dosed those animals to be treated with TGFα 57 4 hours prior to challenge with CP. A single dose of CP was administered. Additional doses (as indicated) of TGFα 57 were made at 24 hours, 48 hours, 72 hours and 96 hours after the CP dose. All doses were made by IP injection. Controls were dosed with saline instead of either or both of CP and TGF-α57.
The animals were sacrificed about 4 hours after the last TGF-α57 (or saline) dose. Key organs were removed and spleens were immediately weighed after a clean incision. All the relevant organs were placed in formalin, transported for histopathological analysis, mounted, sectioned, stained and observed. The results of this histological analysis of the spleens for hematopoietic effect and the GI tract (below) provided surprising and unexpected data of the effect of TGF-α57 activity.
There was erythrocytes in the perifollicular zone surrounding both the T cell and B cell compartments of white pulp. […] The T cells stained for the T-cell receptor but were negative for CD4 and CD8 markers. Accordingly, the T-cells are double null T-cell progenitors induced by TGF-α administration.

kidney [4] = assay: gentamicin chronic kidney toxicity, blood BUN and creatinine; type: in vivo, CD-1 mice; conditions: gentamicin sulfate 80 mg/kg sc every 24 hours; 1 μg ip every 24 hours; two weeks
Description: In another set of in vivo experiments, gentamicin (antibiotic having dose-limiting kidney toxicity side effects) was used as the cytotoxic agent for a chronic cytotoxic agent. Eight CD-1 mice were weighed and injected subcutaneously with 80 mg/kg of gentamicin sulfate. Four of the mice were controls and injected with 0.1 ml of 0.9% saline and the other four injected ip with 0.1 ml of 10 μg/ml stock of TGF-α (57 aa polypeptide) as a 1 μg dose. The mice were reinjected with the same does of saline or TGF-α every 24 hours and every 24 hours subcutaneously with the same does of gentamicin. After two weeks of treatment, the mice were sacrificed and blood BUN and creatinine were measured and the kidneys examined. The average creatinine values were 0.49±0.096 for controls and 0.34±0.042 for treated mice. The average BUN values were 36.1±4.8 for controls and 35.5±4.9 for treated mice.

TGF-α57: 57 amino acid polypeptide of formula VI: Ser-Leu-Ser-Leu-Pro-Ala-Met-Human TGFα
increase in CD34 positive progenitor cells ([1]; added alone, 10 ng/ml): 35% | proliferation of dendritic precursor cells ([1]; treated cultures): stimulation of the proliferation of dendritic precursor cells | average BUN (kidney [2]): 165.3±75.6 | average creatinine (kidney [2]): 1.51±0.940 | T cell progenitor cells (histology) [3]: increase in T cell progenitor cells | spleen weights (mouse spleen; CP 5 mg/kg or 10 mg/kg, 10 μg/kg or 50 μg/kg IP, FIG. 3): return to normal spleen weights | spleen histology (H&E) (mouse spleen; CP 10 mg/kg and 50 μg/kg): increased number of T cells and erythrocytes in the perifollicular zone | platelet counts (mouse spleen; with CP, as opposed to CP alone): higher | average BUN (kidney [4]): 35.5±4.9 | average creatinine (kidney [4]): 0.34±0.042
